Results: US8088570B2, “Method for screening an agent for preventing or ameliorating wrinkles” (Kao Corporation, priority 2006, dated 2012)

Legend:
K1 protein [1] = assay: Epidermal K1 protein level by western blotting in wrinkle model mice (Example 1); type: in vivo, hairless mice; conditions: 5 w/v % CLP applied 6 weeks after 9 weeks of UV irradiation
Protocol: (§1) Six-week-old hairless mice of the same species as in Reference Example 1 were exposed for 9 consecutive weeks to ultraviolet rays at a dose of 470 J/m^2 during the 0th (at the start of irradiation) to first week, at a dose of 530 J/m^2 during the first to second week, at a dose of 600 J/m^2 during the second to third week, and at a dose of 670 J/m^2 during the fourth and subsequent weeks, to prepare chronically ultraviolet-irradiated mice (wrinkle model mice). Then, 100 μL of 5 w/v % CLP solution (50 vol % ethanol solution) was applied once […] and five times a week for 6 consecutive weeks to the whole dorsal skin of each of the mice to examine changes in epidermal keratin protein levels. For controls, 50 vol % ethanol solution (solvent control) and unirradiated age-matched mice (unirradiated mice) were used. Each of the groups comprised 3 mice.
(§2) After the dorsal skins collected from the mice were cooled on ice immediately after treatment in distilled water at 60° C. for 1 minute, epidermal portions were separated from the dermis with a spatula. […] Labeling was performed by using peroxidase-labeled secondary antibodies, and color was developed by chemiluminescence method (ECL-Plus, Amersham Pharmacia Biotech) and detected with X-ray films. Quantification was performed with Adobe Photoshop (Adobe Systems Incorporated).

K16 protein [2] = assay: Epidermal K16 protein level by western blotting, wrinkle formation test (Example 2); type: in vivo, hairless mice; conditions: 4% CLP applied with UV irradiation, 12 weeks
Protocol: (§3) After the dorsal skins collected from the mice were cooled on ice immediately after treatment in distilled water at 60° C. for 1 minute, epidermal portions were separated from the dermis with a spatula. The obtained epidermal portions (containing the stratum corneum) were homogenized in a urea buffer (8 M urea, 50 mM tris-HCl (pH 7.6), 100 mM mercaptoethanol, 1 mM dithiothreitol, and protease inhibitors) to extract proteins. Insoluble matter was removed by centrifugation and supernatant collection. Following the measurement of the total protein concentration (RD DC Protein Assay Kit, Bio-Rad Laboratories Inc.), samples were prepared at the same concentrations. The samples were supplemented with laemmli buffer and treated at 90 to 100° C. for 3 to 5 minutes to give samples for electrophoresis. The samples were electrophoresed on 5 to 15% gradient acrylamide gel or 12.5% acrylamide gel (Bio Rad) at 60 V for 3 hours and blotted onto a nitrocellulose membrane at 250 mA for 1 hour under ice cooling. […] Labeling was performed by using peroxidase-labeled secondary antibodies, and color was developed by chemiluminescence method (ECL-Plus, Amersham Pharmacia Biotech) and detected with X-ray films. Quantification was performed with Adobe Photoshop (Adobe Systems Incorporated). […]
(§4) Moreover, the quantification of keratin proteins was performed by western blotting in the same way as in Example 1.

K16 protein [3] = assay: Epidermal K16 protein level by western blotting in wrinkle model mice (Example 1); type: in vivo, hairless mice; conditions: 5 w/v % CLP applied 6 weeks after 9 weeks of UV irradiation; compared with solvent control and unirradiated mice
Protocol: as §1, §2

K6 protein [4] = assay: Epidermal K6 protein level by western blotting, wrinkle formation test (Example 2); type: in vivo, hairless mice; conditions: 4% CLP applied with UV irradiation, 12 weeks
Protocol: as §3, §4

K14 protein [5] = assay: Epidermal K14 protein level by western blotting, wrinkle formation test (Example 2); type: in vivo, hairless mice; conditions: 4% CLP applied with UV irradiation, 12 weeks
Protocol: as §3, §4

K10 protein [6] = assay: Epidermal K10 protein level by western blotting in wrinkle model mice (Example 1); type: in vivo, hairless mice; conditions: 5 w/v % CLP applied 6 weeks after 9 weeks of UV irradiation
Protocol: as §1, §2

K6 protein [7] = assay: Epidermal K6 protein level by western blotting in wrinkle model mice (Example 1); type: in vivo, hairless mice; conditions: 5 w/v % CLP applied 6 weeks after 9 weeks of UV irradiation; compared with solvent control and unirradiated mice
Protocol: as §1, §2

K14 protein [8] = assay: Epidermal K14 protein level by western blotting in wrinkle model mice (Example 1); type: in vivo, hairless mice; conditions: 5 w/v % CLP applied 6 weeks after 9 weeks of UV irradiation
Protocol: as §1, §2

[9] = tested on: hairless mice exposed to ultraviolet rays (wrinkle formation); assay: Inhibitory effect of CLP on wrinkle formation, visual observation score (Example 2); type: in vivo; conditions: 4% (Wt/Vol %) CLP, 100 μL applied immediately after each UV irradiation, 12 weeks
Protocol: The degree of wrinkles formed on the dorsal skins of the mice was determined at the start of CLP application and on the 6th week according to a visual observation score with reference to the documents described above. The score was evaluated on a scale of 7 using the scores below and mean values.
Score 0: no wrinkle observed
Score 1: wrinkles slightly observed
Score 2: wrinkles observed
Score 3: wrinkles remarkably observed
The same 6- to 8-week-old hairless mice as in Reference Example 1 were used and exposed to ultraviolet rays of 1 MED (minimum erythema dose) or lower. Immediately after the ultraviolet irradiation, procedures for applying 100 μL of 4% (Wt/Vol %) CLP solution (solvent: 30 Vol/Vol % ethanol/water solution) or vehicle control to the whole dorsal skin of each of the mice were performed once a day and five times a week for 12 consecutive weeks. The irradiation dose was 470 J/m^2 during the 0th (at the start of irradiation) to first week, 530 J/m^2 during the first to second week, 600 J/m^2 during the second to third week, and 670 J/m^2 during the fourth and subsequent weeks. Each of the groups comprised 10 to 12 mice.
The degree of wrinkles formed on the dorsal skins of the mice was determined after 12 weeks from the start of ultraviolet irradiation according to the visual observation score in the same way as in Reference Example 1.

K5 protein [10] = assay: Epidermal K5 protein level by western blotting in wrinkle model mice (Example 1); type: in vivo, hairless mice; conditions: 5 w/v % CLP applied 6 weeks after 9 weeks of UV irradiation
Protocol: as §1, §2

K1 protein [11] = assay: Epidermal K1 protein level by western blotting, wrinkle formation test (Example 2); type: in vivo, hairless mice; conditions: 4% CLP applied with UV irradiation, 12 weeks
Protocol: as §3, §4

K10 protein [12] = assay: Epidermal K10 protein level by western blotting, wrinkle formation test (Example 2); type: in vivo, hairless mice; conditions: 4% CLP applied with UV irradiation, 12 weeks
Protocol: as §3, §4

K5 protein [13] = assay: Epidermal K5 protein level by western blotting, wrinkle formation test (Example 2); type: in vivo, hairless mice; conditions: 4% CLP applied with UV irradiation, 12 weeks
Protocol: as §3, §4

[14] = tested on: chronically ultraviolet-irradiated mice (wrinkle formation model); assay: Wrinkle-improving effect of CLP, visual observation score in chronically ultraviolet-irradiated hairless mice (Reference Example 1); type: in vivo, hairless mice (Hr-1-ICR); conditions: 5 w/v % CLP, 100 μL on dorsal skin for 6 weeks after 12 weeks of UV irradiation
Text: An experimental system of the chronic and continuous exposure of hairless mice to ultraviolet rays of minimum erythema dose (hereinafter, referred to as 1 MED) or lower (J. Pharm. Pharmacol. 1992; 44: 379-386; and Photochem. Photobiol., 1991; 53: 109-112) was used as a wrinkle formation model to perform a test of wrinkle improvement of 1-carbamimidoyl-L-proline (CLP) in vivo.
The mice used were hairless mice (Hr-1-ICR) produced from crossing between Hr-1 (Skh-1) hairless mice and ICR mice. Toshiba SE20 lamps were used as an ultraviolet source, and ultraviolet doses used were measured with UV-RADIOMETER (UVR-305/365D, Eisai). The 6- to 10-week-old hairless mice were exposed once a day and five times a week for 12 consecutive weeks to ultraviolet rays of 1 MED or lower, that is, at a dose of 470 J/m^2 during the 0th (at the start of irradiation) to first week, at a dose of 530 J/m^2 during the first to second week, at a dose of 600 J/m^2 during the second to third week, and at a dose of 670 J/m^2 during the fourth and subsequent weeks, to prepare chronically ultraviolet-irradiated mice. […]
The degree of wrinkles formed on the dorsal skins of the mice was determined at the start of CLP application and on the 6th week according to a visual observation score with reference to the documents described above. The score was evaluated on a scale of 7 using the scores below and mean values. […]

**Q.** How did the “epidermal K1 protein level” value (K1 protein [1]) turn out when `N=C(N)N1CCC[C@H]1C(=O)O` [CLP, 1-carbamimidoyl-L-proline] was run?
**A.** The value was “No significant difference”.

**Q.** What about the “K16 protein level compared with vehicle control group” value (K16 protein [2]) of the same compound?
**A.** Its value is “significantly decreased”.

**Q.** What about the “epidermal K16 protein level” value (K16 protein [3]) of the same compound?
**A.** The value was “decreased to unirradiated levels”.

**Q.** What about the “K6 protein level compared with vehicle control group” value (K6 protein [4]) of the same compound?
**A.** Its value is “significantly decreased”.

**Q.** And the “K14 protein level compared with vehicle control group” value (K14 protein [5])?
**A.** Its value is “no significant difference”.

**Q.** And the “epidermal K10 protein level” value (K10 protein [6])?
**A.** Its value is “No significant difference”.

**Q.** What about the “epidermal K6 protein level” value (K6 protein [7]) of the same compound?
**A.** The value was “decreased to unirradiated levels”.

**Q.** And the “epidermal K14 protein level” value (K14 protein [8])?
**A.** The value was “No significant difference”.

**Q.** And the “wrinkle formation (visual observation score) compared with vehicle control group” value [9]?
**A.** The value was “significant inhibitory effect”.

**Q.** And the “epidermal K5 protein level” value (K5 protein [10])?
**A.** The value was “hardly changed”.

**Q.** And the “K1 protein level compared with vehicle control group” value (K1 protein [11])?
**A.** The value was “no significant difference”.

**Q.** What about the “K10 protein level compared with vehicle control group” value (K10 protein [12]) of the same compound?
**A.** Its value is “no significant difference”.

**Q.** What about the “K5 protein level compared with vehicle control group” value (K5 protein [13]) of the same compound?
**A.** Its value is “no significant difference”.

**Q.** What about the “visual observation score of wrinkles, 6th week compared with at the start” value [14] of the same compound?
**A.** Its value is “significantly decreased”.

**Q.** And the “visual observation score of wrinkles, compared with control group on the 6th week” value ([14]; control 30 vol % ethanol)?
**A.** Its value is “significantly lower”.
